Laboratory results as given in ChEMBL document CHEMBL5236548, “Marine Natural Products: A Potential Source of Anti-hepatocellular Carcinoma Drugs” (J Med Chem, 2021).
Blank lines part the entries; values can stand above or below the compound they belong to.

How the values were obtained:
[1] = test system: HepG2; assay: Cytotoxicity against human HepG2 cells incubated for 48 hrs by MTT assay; type: functional, cell-based; details: HepG2, 48 h
[2] = test system: HepG2; assay: Antiproliferative activity against human HepG2 cells incubated for 72 hrs; type: functional, cell-based; details: HepG2, 72 h
[3] = test system: Bel-7402; assay: Cytotoxicity against human 7402 hepatoma cells incubated for 24 hrs by MTT assay; type: functional, cell-based; details: Bel-7402, 24 h
[4] = test system: MDA-MB-435; assay: Cytotoxicity against human MDA-MB-435 cells incubated for 24 hrs by MTT assay; type: functional, cell-based; details: MDA-MB-435, 24 h
[5] = test system: HepG2; assay: Cytotoxicity against human HepG2 cells measured after 3 days by MTT assay; type: functional, cell-based; details: HepG2, 72 h
[6] = test system: SK-HEP1; assay: Antiproliferative activity against human SK-HEP1 cells assessed as cell growth inhibition by SRB method; type: functional
[7] = test system: HepG2; assay: Antiproliferative activity against human HepG2 cells assessed as cell growth inhibition by SRB method; type: functional
[8] = test system: HepG2; assay: Cytotoxicity against human HepG2 cells by MTT assay; type: functional, cell-based
[9] = test system: HepG2; assay: Antiproliferative activity against human HepG2 cells incubated for 72 hrs by MTT assay; type: functional, cell-based; details: HepG2, 72 h
[10] = test system: HepG2; assay: Anticancer activity against human HepG2 cells by MTT assay; type: functional, cell-based

Compound: CCCCSC1=C(SCCCC)C(=O)c2c(O)c3c(c(O)c2C1=O)C[C@@H](O)[C@@](C)(O)C3
IC50 [1]: 5.04 µM

Compound: CC[C@H]1C=CCC[C@@]2(C[C@@H]3CCC4[C@H](C(=O)OCCCCCCCCCCCCCCCC(=O)N(CCCN)C[C@@H](O)CCN)[C@]5(CCC[C@@H](C)O5)NC(=N2)N43)O1 (some centres undefined)
IC50 [2]: 2.66 µM

Compound: CC[C@H]1C=CCC[C@@]2(C[C@@H]3CC[C@]4(O)[C@H](C(=O)OCCCCCCCCCCCCCCCCC(=O)N(CCCN)C[C@@H](O)CCN)[C@]5(CCC[C@@H](C)O5)NC(=N2)N34)O1
IC50 [2]: 2.11 µM

Compound: COC(=O)N[C@H]1[C@@H](C)O[C@@H](O[C@H]2C/C=C(\C)[C@@H]3C=C[C@@H]4[C@@H](O[C@H]5C[C@@H](O[C@H]6C[C@@H](O)[C@@H](O[C@@H]7C[C@@H](O)[C@@H](OC)[C@H](C)O7)[C@H](C)O6)[C@@H](O)[C@H](C)O5)[C@H](C)C[C@H](C)[C@H]4[C@]3(C)/C(O)=C3\C(=O)O[C@]4(C[C@@H](C)C(CO)=C[C@H]4/C=C/2C)C3=O)C[C@]1(C)N
IC50 [3]: 625 µM
IC50 [4]: 6.48 µM

Compound: C=C(CC[C@@H](C)[C@H]1[C@@H](O)C[C@H]2[C@@H]3CC=C4C[C@@H](O)CC[C@]4(C)[C@H]3[C@H](O)C[C@]12C)C(C)C
IC50 [5]: 14.9 µM

Compound: COC(=O)N[C@H]1[C@@H](C)O[C@@H](O[C@H]2C/C=C(\C)[C@@H]3C=C[C@@H]4[C@@H](O[C@H]5C[C@@H](O[C@H]6C[C@@H](O)[C@@H](O[C@@H]7C[C@@H](O)[C@@H](OC)[C@H](C)O7)[C@H](C)O6)[C@@H](O)[C@H](C)O5)[C@H](C)C[C@H](C)[C@H]4[C@]3(C)/C(O)=C3\C(=O)O[C@]4(C[C@@H](C)C(CO)=C[C@H]4/C=C/2C)C3=O)C[C@]1(C)[N+](=O)[O-]
IC50 [3]: 0.506 µM
IC50 [4]: 52.1 µM

Compound: COC1=CC[C@@H]([C@@H](C)/C=C(C)/C=C\C=C/C(=O)N[C@H](C(=O)N/C=C\C[C@H](C/C=C(\C)Cl)OC(N)=O)C(C)(C)C)OC1=O
GI50 [6]: 0.000278 µM
GI50 [7]: 0.000752 µM

Compound: COC1=CC(=O)c2c(O)c3c(c(O)c2C1=O)C[C@]1(C)OCO[C@@H]1C3
IC50 [1]: 12.8 µM

Compound: CCC(C)SC1=C(SC)C(=O)c2c(O)c3c(c(O)c2C1=O)C[C@](C)(O)[C@H](O)C3 (some centres undefined)
IC50 [1]: 2.39 µM

Compound: C/C=C(\N=C=S)C(=O)O[C@H]1[C@@H](OC(C)=O)[C@@H](O)[C@H]([C@@]2(O)CC(=O)C(N)=C(C(=O)O)C2=O)O[C@@H]1C
IC50 [8]: 4.3 µM

Compound: COc1cccc2c1C(=O)c1c(O)c3c(c(O)c1C2=O)C[C@@](O)(C(=O)CO)C[C@@H]3O[C@H]1C[C@H](N)[C@@H](O)[C@H](C)O1 [EPIRUBICIN]
IC50 [1]: 0.96 µM

Compound: C[C@]1(O)Cc2c(O)c3c(c(O)c2C[C@H]1O)C(=O)C1=C(SCCS1)C3=O
IC50 [1]: 1.98 µM

Compound: CC(=O)O[C@H]1CC[C@]2(C)C3CC[C@@]4(C)C(CCC4[C@H](C)CCCC(C)C)C3[C@@H](c3nc4ccccc4[nH]3)[C@]2(O)C1 (some centres undefined)
IC50 [9]: 4.2 µM

Compound: C#CCNC1=CC(=O)c2c(O)c3c(c(O)c2C1=O)C[C@](C)(O)[C@H](O)C3
IC50 [1]: 10.1 µM

Compound: C[C@]1(O)Cc2c(O)c3c(c(O)c2C[C@H]1O)C(=O)C=C(NCc1ccc(F)cc1)C3=O
IC50 [1]: 11.2 µM

IC50 [10]: 0.13 µM
Compound: CO[C@@]12[C@H](COC(N)=O)C3=C(C(=O)C(C)=C(N)C3=O)N1C[C@@H]1N[C@@H]12 [MITOMYCIN]

Compound: COc1ccc2[nH]c([C@@H]3C4C5CCC([C@H](C)CCCC(C)C)[C@@]5(C)CCC4[C@@]4(C)CC[C@H](O)C[C@@]34O)nc2c1 (some centres undefined)
IC50 [9]: 8.4 µM

GI50 [6]: 0.0378 µM
Compound: CC[C@]1(O)C[C@@H]2CN(CCc3c([nH]c4ccccc34)[C@@](C(=O)OC)(c3cc4c(cc3OC)N(C)[C@H]3[C@@](O)(C(=O)OC)[C@H](OC(C)=O)[C@]5(CC)C=CCN6CC[C@]43[C@@H]65)C2)C1 [VINBLASTINE]

Compound: Cc1cc2nc([C@@H]3C4C5CCC([C@H](C)CCCC(C)C)[C@@]5(C)CCC4[C@@]4(C)CC[C@H](O)C[C@@]34O)[nH]c2cc1C (some centres undefined)
IC50 [9]: 4.5 µM

Compound: C/C=C\C[C@@H](C/C=C\NC(=O)[C@@H](NC(=O)\C=C/C=C\C(C)=C\[C@H](C)[C@@H]1CC=C(OC)C(=O)O1)C(C)(C)C)OC(N)=O [PLOCABULIN]
GI50 [6]: 0.000179 µM
GI50 [7]: 0.00276 µM
